Patent US6248754A, “Substituted isoquinoline derivatives and their use as anticonvulsants” (SmithKline Beecham, p.l.c., priority 1997, dated 2001)

Assays:
[1] = target: novel receptor obtainable from rat forebrain tissue; experiment: Radioligand binding assay, displacement of [3H]-Compound A; details: competition with 20 nM [3H]-Compound A, room temperature 1 hour
Description: The affinity of test compounds to the novel receptor site is assessed as follows. Whole forebrain tissue is obtained from rats. The tissue is first homogenised in buffer (usually 50 mM Tris/HCl, pH 7.4). The homogenised tissue is washed by centrifugation and resuspension in the same buffer, then stored at -70° C. until used. To carry out the radioligand binding assay, aliquots of tissue prepared as above (usually at a concentration of 1-2 mg protein/ml) are mixed with aliquots of [3H]-Compound A dissolved in buffer. The final concentration of [3H]-Compound A in the mixture is usually 20 nM. The mixture is incubated at room temperature for 1 hour. [3H]-Compound A bound to the tissue is then separated from unbound [3H]-Compound A by filtration through Whatman GF/B glass fibre filters. The filters are then washed rapidly with ice-cold buffer. The amount of radioactivity bound to the tissue trapped on the filters is measured by addition of liquid scintillation cocktail to the filters followed by counting in a liquid scintillation counter. In order to determine the amount of "specific" binding of [3H]-Compound A, parallel assays are carried out as above in which [3H]-Compound A and tissue are incubated together in the presence of unlabelled Compound A (usually 3 μM). The amount of binding of [3H]-Compound A remaining in the presence of this unlabelled compound is defined as "non-specific" binding. This amount is subtracted from the total amount of [3H]-Compound A binding (i.e. that present in the absence of unlabelled compound) to obtain the amount of "specific" binding of [3H]-Compound A to the novel site. The affinity of the binding of test compounds to the novel site can be estimated by incubating together [3H]-Compound A and tissue in the presence of a range of concentrations of the compound to be tested. The decrease in the level of specific [3H]-Compound A binding as a result of competition by increasing concentrations of the compound under test is plotted graphically, and non-linear regression analysis of the resultant curve is used to provide an estimate of compound affinity in terms of pKi value.

[2] = test system: maximal (tonic hindlimb extension) electroshock seizures in male rats; experiment: Maximal electroshock seizure (MEST) threshold test, rat model; assay type: in vivo; details: 2 mg/kg p.o. at 2 h, suspended in 1% methyl cellulose, statistically significant
Description: The maximal electroshock seizure (MEST) threshold test in rodents is particularly sensitive for detecting potential anticonvulsant properties^1. In this model, anticonvulsant agents elevate the threshold to electrically-induced seizures whilst proconvulsants lower the seizure threshold.
The threshold for maximal (tonic hindlimb extension) electroshock seizures in male rats (Sprague Dawley, 80-150 g, 6 weeks old) was determined by a Hugo Sachs Electronik stimulator which delivered a constant current (0.3 sec duration; from 1-300 mA in steps of 5-20 mA). The procedure is similar to that outlined above for mouse and full details are as published by Upton et al,.^4
The percentage increase or decrease in CC50 for each group compared to the control is calculated.
Drugs are suspended in 1% methyl cellulose.

Row | Compound | pKi [1] | increase in CC50 compared to control [2] [%]
1 | CCOc1ccc(C(=O)Nc2ccc3c(c2Cl)CNCC3)cc1Br [Example 2, N-(8-Chloro-1,2,3,4-tetrahydroisoquinolin-7-yl)-3-bromo-4-ethoxybenzamide] | greater than 7 | 120
2 | COc1ccc(C(=O)Nc2ccc3c(c2Cl)CN(C)CC3)cc1C(F)(F)F [Example 6, N-(8-Chloro-2-methyl-1,2,3,4-tetrahydroisoquinolin-7-yl)-4-methoxy-3-trifluoromethylbenzamide] |  | 260
3 | COc1ccc(C(=O)Nc2ccc3c(c2Br)CNCC3)cc1C(F)(F)F [Example 8, N-(8-Bromo-1,2,3,4-tetrahydroisoquinolin-7-yl)-4-methoxy-3-trifluoromethylbenzamide] |  | 400
4 | COc1ccc(C(=O)Nc2ccc3c(c2Br)CN(C)CC3)cc1C(F)(F)F [Example 9, N-(8-Bromo-2-methyl-1,2,3,4-tetrahydroisoquinolin-7-yl)-4-methoxy-3-trifluoromethylbenzamide] |  | 340

Further lines, with some results ahead:

Row | pKi [1] | Compound | increase in CC50 compared to control [2] [%]
5 | greater than 7 | CCOc1ccc(C(=O)Nc2ccc3c(c2Cl)CN(C)CC3)cc1Br [Example 3, N-(8-chloro-2-methyl-1,2,3,4-tetrahydroisoquinolin-7-yl)-3-bromo-4-ethoxybenzamide] | 160
6 | greater than 7 | COc1ccc(C(=O)Nc2ccc3c(c2Cl)CNCC3)cc1C(F)(F)F [Example 5] | 320
7 | greater than 7 | CCc1c(NC(=O)c2ccc(OC)c(C(F)(F)F)c2)ccc2c1CNCC2 [Example 14, N-(8-Ethyl-1,2,3,4-tetrahydroisoquinolin-7-yl)-4-methoxy-3-trifluoromethylbenzamide] | 
8 | greater than 7 | CCc1c(NC(=O)c2ccc(OC)c(C(F)(F)F)c2)ccc2c1CN(C)CC2 [Example 15, N-(8-Ethyl-2-methyl-1,2,3,4-tetrahydroisoquinolin-7-yl)-4-methoxy-3-trifluoromethylbenzamide] | 
9 | greater than 7 | COc1ccc(C(=O)Nc2ccc3c(c2C=Cc2ccccc2)CNCC3)cc1C(F)(F)F [Example 18, N-(8-Styryl-1,2,3,4-tetrahydroisoquinolin-7-yl)-4-methoxy-3-trifluoromethylbenzamide] | 
10 | greater than 7 | COc1ccc(C(=O)Nc2ccc3c(c2C=Cc2ccccc2)CN(C)CC3)cc1C(F)(F)F.Cl [Example 19, N-(8-Styryl-2-methyl-1,2,3,4-tetrahydroisoquinolin-7-yl)-4-methoxy-3-trifluoromethylbenzamide hydrochloride] | 
